Results published in patent publication US7504398B2, “Substituted-4-(pyrrolo pyrimidin-6-yl)benzenesulphonamide derivatives” (Laboratorios Almirall S.A., priority 2002, dated 2009).

Columns and labels:
hA2B receptors = biological target: T1, hA2B receptors (Homo sapiens, UniProt P29275); assay: Adenosine 2B receptor subtype competition radioligand binding; details: membranes from hA2B receptors transfected to HEK293 cells, [3H]DPCPX as radioligand, 30 min at 25° C.; read-out: IC50 A2B
T1 construct: purchased Receptor Biology, Inc. (USA); host or cells: HEK293
T1 sequence (P29275 1-332): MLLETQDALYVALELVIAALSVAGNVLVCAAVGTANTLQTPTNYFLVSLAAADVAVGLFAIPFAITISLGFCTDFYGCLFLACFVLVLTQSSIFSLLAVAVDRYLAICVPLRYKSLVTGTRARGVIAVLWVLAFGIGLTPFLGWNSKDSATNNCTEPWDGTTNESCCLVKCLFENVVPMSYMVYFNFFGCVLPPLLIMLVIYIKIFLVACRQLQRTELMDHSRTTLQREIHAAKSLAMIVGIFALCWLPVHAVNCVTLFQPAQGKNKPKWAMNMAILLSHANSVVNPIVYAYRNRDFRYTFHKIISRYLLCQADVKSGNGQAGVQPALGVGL
Experimental: Adenosine 2B Receptor Subtype Competition Radioligand Binding
Human membranes from recombinant A2B receptors were purchased from Receptor Biology, Inc.(USA).
Competition assays were carried out by incubation of membranes from hA2B receptors transfected to HEK293 cells, [^3H]DPCPX as radioligand, buffer (50 mM Tris-HCl (pH 6.5), 10 mM MgCl2, 1 mM EDTA, 0.1 mM benzamidine, 2 units/ml adenosine deaminase), and unlabelled ligand in a total volume of 0.1 ml for 30 min at 25° C. NECA was used to determinate non-specific binding. Filter over Schleicher&Schuell GF/52 filters (pre-soaked 0.5% polyethylenyimine) in a Brandel cell harvester. Unbound radioligand was removed with 4×2 ml ice-cold 50 mM Tris-Hcl (pH 6.5).

hA2A receptors = biological target: T2, hA2A receptors (Homo sapiens, UniProt P29274); assay: Adenosine 2A receptor subtype competition radioligand binding; details: membranes from hA2A receptors transfected to HEK293 cells, [3H]ZM241385 as radioligand, 90 min at 25° C.; read-out: IC50 A2A
T2 construct: purchased Receptor Biology, Inc. (USA); host or cells: HEK293
T2 sequence (P29274 whole entry): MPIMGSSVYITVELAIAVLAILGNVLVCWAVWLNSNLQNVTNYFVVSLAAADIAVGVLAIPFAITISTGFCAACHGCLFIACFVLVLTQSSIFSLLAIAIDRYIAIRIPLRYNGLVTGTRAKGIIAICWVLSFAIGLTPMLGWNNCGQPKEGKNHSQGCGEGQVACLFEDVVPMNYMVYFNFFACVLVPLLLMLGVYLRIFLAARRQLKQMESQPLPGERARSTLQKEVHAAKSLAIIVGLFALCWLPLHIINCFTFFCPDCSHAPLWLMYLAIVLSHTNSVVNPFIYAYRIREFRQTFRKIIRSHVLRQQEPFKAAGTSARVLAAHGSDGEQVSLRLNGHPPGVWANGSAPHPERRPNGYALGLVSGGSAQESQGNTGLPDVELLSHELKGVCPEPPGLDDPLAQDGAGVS
Experimental: Adenosine 2A Receptor Subtype Competition Radioligand Binding
Human membranes from recombinant A2A receptors were purchased from Receptor Biology, Inc. (USA).
Competition assays were carried out by incubation of membranes from hA2A receptors transfected to HEK293 cells, [^3H]ZM241385 as radioligand, buffer (50 mM Tris-HCl (pH 7.4), 10 mM MgCl2, 1 mM EDTA, 2 units/ml adenosine deaminase), and unlabelled ligand in a total volume of 0.2 ml for 90 min at 25° C. NECA was used to determinate non-specific binding. Filter over Schleicher&Schuell GF/52 filters (pre-soaked 0.5% polyethylenyimine) in a Brandel cell harvester. Unbound radioligand was removed with 3×3 ml ice-cold 50 mM Tris-Hcl 50 (pH 7.4), 0.9% NaCl.

| Compound | IC50 (hA2B receptors) | IC50 (hA2A receptors) |
| --- | --- | --- |
| Cn1c(=O)c2[nH]c(-c3ccc(S(=O)(=O)Nc4ccccn4)cc3)cc2n(C)c1=O [Example 38, 4-(1,3-Dimethyl-2,4-dioxo-2,3,4,5-tetrahydro-1H-pyrrolo[3,2-d]pyrimidin-6-yl)-N-pyridin-2-ylbenzenesulphonamide] | 12 nM | 75 nM |
| CCCn1c(=O)c2[nH]c(-c3ccc(S(=O)(=O)NC4CCN(Cc5ccccc5)CC4)cc3)cc2n(CCC)c1=O [Example 97, N-(1-Benzylperidin-4-yl)-4-(2,4-dioxo-1,3-dipropyl-2,3,4,5-tetrahydro-1H-pyrrolo[3,2-d]pyrimidin-6-yl)benzenesulphonamide] | – | 60 nM |
| CCCn1c(=O)c2[nH]c(-c3ccc(S(=O)(=O)N4CCN(Cc5ccc(F)cc5)CC4)cc3)cc2n(C)c1=O [Example 107, 6-{4-[4-(4-Fluorobenzyl)piperazine-1-sulphonyl]phenyl}-1-methyl-3-propyl-1,5-dihydropyrrolo[3,2-d]pyrimidine-2,4-dione] | 9 nM | – |
| Cn1c(=O)c2[nH]c(-c3ccc(S(=O)(=O)N4CCN(Cc5ccc(Cl)s5)CC4)cc3)cc2n(C)c1=O [Example 18, 6-{4-[4-(5-Chlorothiophen-2-ylmethyl)piperazine-1-sulphonyl]phenyl}-1,3-dimethyl-1,5-dihydropyrrolo[3,2-d]pyrimidine-2,4-dione] | 4 nM | 85 nM |
| CCn1c(=O)c2[nH]c(-c3ccc(S(=O)(=O)N4CCN(Cc5ccc(Cl)s5)CC4)cc3)cc2n(CC)c1=O [Example 59, 6-{4-[4-(5-Chlorothiophen-2-ylmethyl)piparazine-1-sulphonyl]phenyl}-1,3-diethyl-1,5-dihydropyrrolo[3,2-d]pyrimidine-2,4dione] | – | 28 nM |
| CCCn1c(=O)c2[nH]c(-c3ccc(S(=O)(=O)NCCc4ccccn4)cc3)cc2n(C)c1=O [Example 132, 4-(1-Methyl-2,4-dioxo-3-propyl-2,3,4,5-tetrahydro-1H-pyrrolo[3,2-d]pyrimidin-6-yl)-N-(2-pyridin-2-ylethyl)benzenesulphonamide] | 17 nM | – |
| CCn1c(=O)c2[nH]c(-c3ccc(S(=O)(=O)NC4CCN(Cc5ccc(F)cc5)CC4)cc3)cc2n(CC)c1=O [Example 69, 4-(1,3-Diethyl-2,4-dioxo-2,3,4,5-tetrahydro-1H-pyrrolo[3,2-d]pyrimidin-6-yl)-N-[1-(4-fluorobenzyl)piperidin-4yl]benzenesulphonamide] | – | 84 nM |
| Cn1c(=O)c2[nH]c(-c3ccc(S(=O)(=O)NCCOc4ccccn4)cc3)cc2n(C)c1=O [Example 172, 4-(1,3-Dimethyl-2,4-dioxo-2,3,4,5-tetrahydro-1H-pyrrolo[3,2-d]pyrimidin-6-yl)-N-[2-(pyridin-2-yloxy)ethyl]benzenesulfonamide] | 17 nM | – |
| COc1ccc(NS(=O)(=O)c2ccc(-c3cc4c([nH]3)c(=O)n(C)c(=O)n4C)cc2)cn1 [Example 36, 4-(1,3-Dimethyl-2,4dioxo-2,3,4,5-tetrahydro-1H-pyrrolo[3,2-d]pyrimidin-6-yl)-N-(6-methoxypyridin-3-yl)benzenesulphonamide] | 18 nM | – |
| CCCn1c(=O)c2[nH]c(-c3ccc(S(=O)(=O)N4CCN(c5ccccn5)CC4)cc3)cc2n(C)c1=O [Example 126, 1-Methyl-3-propyl-6-[4-(4-pyridin-2-yipiperazine-1-sulphonyl)phenyl]-1,5-dihydropyrrolo[3,2-d]pyrimidin-2,4-dione] | 12 nM | – |
| Cn1c(=O)c2[nH]c(-c3ccc(S(=O)(=O)N4CCN(Cc5cccc(F)c5)CC4)cc3)cc2n(C)c1=O [Example 3, 6-{4-[4-(3-Fluorobenzyl)piperazine-1-sulphonyl]phenyl}-1,3-dimethyl-1,5-dihydropyrrolo[3,2-d]pyrimidine-2,4-dione] | 7 nM | – |
| Cn1c(=O)c2[nH]c(-c3ccc(S(=O)(=O)N4CCN(Cc5ccccc5)CC4)cc3)cc2n(C)c1=O [Example 1, 6-[4-(4-Benzylpiperazine-1-sulphonyl)phenyl]-1,3-dimethyl-1,5-dihydropyrrolo[3,2-d]pyrimidine-2,4-dione] | 16 nM | – |
| Cn1c(=O)c2[nH]c(-c3ccc(S(=O)(=O)NCCc4ccccn4)cc3)cc2n(C)c1=O [Example 37, 4-(1,3-Dimethyl-2,4-dioxo-2,3,4,5-tetrahydro-1H-pyrrolo[3,2-d]pyrimidin-6-yl)-N-(2-pyridin-2-ylethyl)benzenesulphonamide] | 14 nM | – |
| CCCn1c(=O)c2[nH]c(-c3ccc(S(=O)(=O)N4CCN(Cc5ccc6c(c5)OCO6)CC4)cc3)cc2n(C)c1=O [Example 118, 6[4-(4-Benzol[1,3]dioxol-5-ylmethylpiperazine-1-sulphonyl)phenyl]-1-methyl-3-propyl-1,5-dihydropyrrolo[3,2-d]pyrimidine-2,4-dione] | 6 nM | – |
| COc1cccc(OCCNS(=O)(=O)c2ccc(-c3cc4c([nH]3)c(=O)n(C)c(=O)n4C)cc2)n1 [Example 173, 4-(1,3-Dimethyl-2,4-dioxo-2,3,4,5-tetrahydro-1H-pyrrolo[3,2-d]pyrimidin-6-yl)-N-[2-(6-methoxypyridin-2-yloxy)ethyl]benzenesulfonamide] | 5 nM | – |
